Where two headings read alike, the source gives them in different places.
What was measured:
yggA transcription = assay type: cell-based, Escherichia coli; conditions: for transcription of the yggA gene upon supplementation of the culture medium: strains carrying the wild-type argP gene; for Beta-galactosidase specific activity (units) in medium with 1 mM lysine / Beta-galactosidase specific activity (units) in medium with 1 mM arginine: glucose-minimal A medium, 37° C.
[1] = system: wild-type E. coli strain MC4100; assay: Canavanine tolerance of strains, growth in glucose-minimal A medium; assay type: cell-based, Escherichia coli; conditions: scored after 24 hours at 37° C.
[2] = strain GJ4748/pHYD956 (argR), Nil = 217
[3] = strain MC4100/pHYD926/pHYD956 (argP-S94L), Nil = 1557
[4] = strain MC4100/pHYD956, Nil = 20

## N=C(N)NOCC[C@H](N)C(=O)O [canavanine]
yggA transcription
  transcription of the yggA gene upon supplementation of the culture medium: induced
[1]; 20 micrograms/ml of canavanine
  growth of MC4100 (canavanine tolerance): resistant
[1]; 65 micrograms/ml of canavanine in the presence of uracil at 40 micrograms/ml
  growth of MC4100 (canavanine tolerance): sensitive

## NCCCC[C@H](N)C(=O)O [lysine]
yggA transcription; [2]
  Beta-galactosidase specific activity (units) in medium with 1 mM lysine: 29 units
yggA transcription; [3]
  Beta-galactosidase specific activity (units) in medium with 1 mM lysine: 1616 units
yggA transcription; [4]
  Beta-galactosidase specific activity (units) in medium with 1 mM lysine: 14 units
yggA transcription
  transcription of the yggA gene upon supplementation of the culture medium: substantially repressed

## NC(=O)NCCC[C@H](N)C(=O)O [citrulline]
yggA transcription
  transcription of the yggA gene upon supplementation of the culture medium: induced

## N=C(N)NCCC[C@H](N)C(=O)O [arginine]
yggA transcription; [2]
  Beta-galactosidase specific activity (units) in medium with 1 mM arginine: 424 units
yggA transcription; [3]
  Beta-galactosidase specific activity (units) in medium with 1 mM arginine: 1514 units
yggA transcription; [4]
  Beta-galactosidase specific activity (units) in medium with 1 mM arginine: 66 units
yggA transcription
  transcription of the yggA gene upon supplementation of the culture medium: induced
